Read-outs that look alike come from different tables or passages of the source.
Key:
5HT3 receptor [1] = molecular target: T1, 5HT3 receptor (Rattus norvegicus, UniProt P35563); assay: inhibition of the binding of ^3 H-GR65630 in rat entorhinal cortex; parameters: labeled in the entorhinal cortex of the rat brain; from tissue; host or cells: rat entorhinal cortex; details: for binding model / interaction with 5-HT3 receptors: entorhinal cortex of the rat brain, ^3 H-GR 65630
T1 sequence (P35563 24-483): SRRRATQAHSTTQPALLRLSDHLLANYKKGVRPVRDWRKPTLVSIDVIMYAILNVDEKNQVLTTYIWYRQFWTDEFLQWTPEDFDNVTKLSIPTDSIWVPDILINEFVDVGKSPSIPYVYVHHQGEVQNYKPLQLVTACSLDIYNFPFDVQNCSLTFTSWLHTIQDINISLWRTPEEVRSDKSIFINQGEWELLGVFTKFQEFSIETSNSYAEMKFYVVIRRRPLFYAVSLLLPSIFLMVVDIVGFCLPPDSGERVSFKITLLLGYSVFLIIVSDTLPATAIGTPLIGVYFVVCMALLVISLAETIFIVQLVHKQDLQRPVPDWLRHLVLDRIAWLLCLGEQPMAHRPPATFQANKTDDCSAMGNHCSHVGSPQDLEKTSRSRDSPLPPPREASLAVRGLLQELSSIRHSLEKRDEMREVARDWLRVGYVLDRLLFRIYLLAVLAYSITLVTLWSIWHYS

5HT3 receptor [2] = molecular target: T1, 5HT3 receptor; assay: von Bezold-Jarisch chemoreflex evoked by 5-HT in the anesthetised rat; type: in vivo; parameters: chemoreflex evoked by 5-HT in the anesthetised rat; from tissue; host or cells: whole living anesthetised rat, endogenous receptor (vagal afferents by own knowledge); details: 5-HT 20 μg/kg i.v., anesthetized rat; for % inhibition of the Bezold-Jarisch reflex: mean ± S.E.M. from 6 animals, *p < 0.01 vs controls (Dunnett's test)
Experimental: Pharmacol. 326, 36-44 (1984).
The following Table I reports the in vivo 5HT3 antagonist activity data obtained in this test for the representative compound of the invention 1-(1-azabicyclo[2.2.2]oct-3 yl)-3-(3-chlorophenyl)-imidazolidin-2-one (internal code FCE 26778).
Inhibition of the Bezold-Jarisch reflex elicited by 5-HT
(20 μg/kg i.v.) by i.v. FCE 26778 in the anesthetized rat.
Values are mean ± S.E.M. from 6 animals

Compound | Ki (5HT3 receptor [1]) [nM] | Ki (5HT3 receptor [1]; [^3 H]GR 65630 labelled 5HT3 sites, rat entorhinal cortex, two site fitting, low affinity, read-out: Ki low) [nM] | binding model / interaction with 5-HT3 receptors (5HT3 receptor [1]) | % inhibition of the Bezold-Jarisch reflex (5HT3 receptor [2]; 30 μg/kg i.v.) [%] | % inhibition of the Bezold-Jarisch reflex (5HT3 receptor [2]; 100 μg/kg i.v.) [%] | % inhibition of the Bezold-Jarisch reflex (5HT3 receptor [2]; 300 μg/kg i.v.) [%] | ED50 (5HT3 receptor [2]; iv, limits 54.50-98.39) [mg/kg]
O=C1N(c2cccc(Cl)c2)CCN1C1CN2CCC1CC2 (centres unmarked) [FCE 26778, 1-(1-azabicyclo[2.2.2]oct-3 yl)-3-(3-chlorophenyl)-imidazolidin-2-one] | 4.42 | 1100 | interacted according to a two site non-linear fitting model | 26.66 ± 5.25 | 59.57 ± 5.87 | 81.33 ± 3.32 | 0.0749
CN1C2CCC1CC(OC(=O)c1cc(Cl)cc(Cl)c1)C2 (centres unmarked) [MDL 72222] | 25.5 |  | displaced ^3 H-GR 65630 according to one site non-linear fitting |  |  |  | 
CCN(CC)CCNC(=O)c1cc(Cl)c(N)cc1OC [Metoclopramide] | 547 |  | displaced ^3 H-GR 65630 according to one site non-linear fitting |  |  |  | 
